Measured values published in patent US10202368B2, “CXCR7 receptor modulators” (IDORSIA PHARMACEUTICALS LTD, priority 2014, dated 2019).

Target: CXCR7 (Homo sapiens (Human), UniProt P25106)
Test: PathHunter CHO-K1 CXCR7 β-arrestin assay (agonistic activity)
Type: cell-based
Conditions: β-arrestin recruitment in PathHunter CHO-K1 CXCR7 β-arrestin cells, 90 minutes at 37° C., geometric mean values
How it was run: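 The enzyme-fragment complementation format pairs ProLink-tagged CXCR7 with EA–β-arrestin 2 in CHO-K1 cells, seeded at 5000/well for 24 h and serum-starved in OPTIMEM 3–4 h. Compounds were added in HBSS/20 mM HEPES/0.2% BSA for 90 min at 37 °C, followed by 1 h detection at room temperature and chemiluminescence read-out. EC50 is the geometric mean of several measurements.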

CXCR7, sequence (P25106 whole entry): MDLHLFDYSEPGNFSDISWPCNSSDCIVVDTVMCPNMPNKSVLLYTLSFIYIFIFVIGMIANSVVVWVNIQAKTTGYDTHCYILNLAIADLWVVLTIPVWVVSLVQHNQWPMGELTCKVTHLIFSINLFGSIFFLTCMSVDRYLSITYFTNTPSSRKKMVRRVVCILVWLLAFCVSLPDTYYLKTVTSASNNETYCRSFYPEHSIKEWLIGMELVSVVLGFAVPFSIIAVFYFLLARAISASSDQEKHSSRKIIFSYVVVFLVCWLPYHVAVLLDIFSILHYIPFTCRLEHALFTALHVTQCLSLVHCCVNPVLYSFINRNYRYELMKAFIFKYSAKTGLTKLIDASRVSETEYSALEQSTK
CXCR7, sequence (P32121 whole entry partner): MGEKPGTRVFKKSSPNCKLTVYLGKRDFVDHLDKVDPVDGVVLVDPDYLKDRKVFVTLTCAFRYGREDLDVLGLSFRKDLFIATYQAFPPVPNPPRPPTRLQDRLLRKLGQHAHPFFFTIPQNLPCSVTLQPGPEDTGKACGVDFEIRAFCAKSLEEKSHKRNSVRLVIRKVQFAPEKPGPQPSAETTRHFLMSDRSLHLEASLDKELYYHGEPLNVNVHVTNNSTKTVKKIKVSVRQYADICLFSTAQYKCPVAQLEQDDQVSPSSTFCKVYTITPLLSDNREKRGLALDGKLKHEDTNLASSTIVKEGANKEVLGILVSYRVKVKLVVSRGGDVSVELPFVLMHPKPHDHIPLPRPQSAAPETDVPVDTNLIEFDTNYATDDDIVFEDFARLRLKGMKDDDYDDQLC

| SMILES | EC50 [nM] |
| --- | --- |
| CCN1CCOc2c(cccc2NCC(=O)N(CCN(C)C)Cc2c(C(F)(F)F)nn(C)c2Cl)C1 [Example 77, N-(5-Chloro-1-methyl-3-trifluoromethyl-1H-pyrazol-4-ylmethyl)-N-(2-dimethylamino-ethyl)-2-(4-ethyl-2,3,4,5-tetrahydro-benzo[f][1,4]oxazepin-9-ylamino)-acetamide] | 280 |
| CCN1CCOc2c(cccc2NCC(=O)N(CCN(C)C(=O)OC(C)(C)C)Cc2ncccc2Cl)C1 [Example 78, (2-{(3-Chloro-pyridin-2-ylmethyl)-[2-(4-ethyl-2,3,4,5-tetrahydro-benzo[f][1,4]oxazepin-9-ylamino)-acetyl]-amino}-ethyl)-methyl-carbamic acid tert-butyl ester] | 240 |
| O=C(CNc1cccc2c1OCCN(CC1CC1)C2)N(CCN1CCCC1)Cc1ncccc1C(F)(F)F [Example 82, 2-(4-Cyclopropylmethyl-2,3,4,5-tetrahydro-benzo[f][1,4]oxazepin-9-ylamino)-N-(2-pyrrolidin-1-yl-ethyl)-N-(3-trifluoromethyl-pyridin-2-ylmethyl)-acetamide] | 2 |
| CC(C)(C)NCCN(Cc1ccccc1C(F)(F)F)C(=O)CNc1cccc2c1OCCN(CC1CC1)C2 [Example 83, N-(2-tert-Butylamino-ethyl)-2-(4-cyclopropylmethyl-2,3,4,5-tetrahydro-benzo[f][1,4]oxazepin-9-ylamino)-N-(2-trifluoromethyl-benzyl)-acetamide] | 3 |
| CN(C)CCN(Cc1ccccc1C(F)(F)F)C(=O)CNc1cccc2c1OCCN(CC1CC1)C2 [Example 84, 2-(4-Cyclopropylmethyl-2,3,4,5-tetrahydro-benzo[f][1,4]oxazepin-9-ylamino)-N-(2-dimethylamino-ethyl)-N-(2-trifluoromethyl-benzyl)-acetamide] | 4 |
| CC(C)NCCN(Cc1ccccc1C(F)(F)F)C(=O)CNc1cccc2c1OCCN(CC1CC1)C2 [Example 85, 2-(4-Cyclopropylmethyl-2,3,4,5-tetrahydro-benzo[f][1,4]oxazepin-9-ylamino)-N-(2-isopropylamino-ethyl)-N-(2-trifluoromethyl-benzyl)-acetamide] | 3 |
| CN(C)CCN(Cc1ccccc1Cl)C(=O)CNc1cccc2c1CN(CC1CC1)CCO2 [Example 86, N-(2-Chloro-benzyl)-2-(4-cyclopropylmethyl-2,3,4,5-tetrahydro-benzo[f][1,4]oxazepin-6-ylamino)-N-(2-dimethylamino-ethyl)-acetamide] | 14 |
| Cc1cccnc1CN(CCN(C)C)C(=O)CNc1cccc2c1CN(CC1CC1)CCO2 [Example 87, 2-(4-Cyclopropylmethyl-2,3,4,5-tetrahydro-benzo[f][1,4]oxazepin-6-ylamino)-N-(2-dimethylamino-ethyl)-N-(3-methyl-pyridin-2-ylmethyl)-acetamide] | 23 |
| CN(C)CCN(Cc1cccc(Cl)c1Cl)C(=O)CNc1cccc2c1CN(CC1CC1)CCO2 [Example 88, 2-(4-Cyclopropylmethyl-2,3,4,5-tetrahydro-benzo[f][1,4]oxazepin-6-ylamino)-N-(2,3-dichloro-benzyl)-N-(2-dimethylamino-ethyl)-acetamide] | 15 |
| CC(C)NCCN(Cc1ccccc1C(F)(F)F)C(=O)CNc1cccc2c1CN(CC1CC1)CCO2 [Example 89, 2-(4-Cyclopropylmethyl-2,3,4,5-tetrahydro-benzo[f][1,4]oxazepin-6-ylamino)-N-(2-isopropylamino-ethyl)-N-(2-trifluoromethyl-benzyl)-acetamide] | 5 |
| CC(C)NCCN(Cc1ncccc1C(F)(F)F)C(=O)CNc1cccc2c1CN(CC1CC1)CCO2 [Example 90, 2-(4-Cyclopropylmethyl-2,3,4,5-tetrahydro-benzo[f][1,4]oxazepin-6-ylamino)-N-(2-isopropylamino-ethyl)-N-(3-trifluoromethyl-pyridin-2-ylmethyl)-acetamide] | 7 |
